We go through 5 compounds from patent US20090075902A1, “INHIBITING THE SIGNS OF AGING BY INHIBITING NF-KAPPA B ACTIVATION” (priority 2007, published 2009).

One data set has as its system Ercc^−/Δ mouse. The data set is described as follows: Delayed onset of frailty in a mouse treated with Compound A. It counts as in vivo. Conditions: 5 MG/KG of Compound A, n=1; oil control n=3. On the procedure: Delayed onset of frailty in an Ercc^−/Δ mouse treated with 5 MG/KG of Compound A
For data set [1], the system named is Ercc1^−/Δ mice. The data set is described as follows: Pilot study: chronic 8K-NBD treatment, onset and severity of progeroid symptoms. It counts as in vivo, mouse. The protocol:
FIG. 6. Exposure paradigm for pilot study to determine the impact of 8K-NBD on quality of life in progeroid Ercc1^−/Δ mice. 8K-NBD was dissolved in 5% DMSO in PBS and injected intraperitoneally. A littermate Ercc1^−/Δ mouse was treated with an equal volume of vehicle only (PBS). The study was concluded at 19 wks when the mouse treated with vehicle only became profoundly ataxic and cachectic, requiring euthanization.
Studies were performed to determine if inhibition of NF-κB activation ameliorates accelerated aging in Ercc1^−/Δ mice. An Ercc1^−/Δ mouse was chronically treated with 8K-NBD peptide as described in FIG. 6. The age at onset of numerous progeroid symptoms were recorded (Table II). Ataxia and priapism, both caused by neurodegeneration (Rolig and McKinnon, 2000), were delayed by 3 wks and 1.5 wks respectively in the mouse treated with 8K-NBD.
Motor strength and coordination were measured weekly in the mice by testing their ability to cross a balance beam (FIG. 9A) and to remain suspended from a wire (FIG. 9B).

Data set [2] has as its system Ercc1^−/Δ mice. The data set is described as follows: Second series: 8K-NBD in an older symptomatic mouse, liver and skeletal muscle histopathology. It counts as in vivo. On the procedure: FIG. 10. Exposure paradigm for pilot study to determine the impact of 8K-NBD on histopathologic changes in progeroid Ercc1^−/Δ mice. 8K-NBD was dissolved in 5% DMSO in PBS and injected i.p.
In a second series of experiments, an older Ercc1^−/Δ mouse, which already had progeroid symptoms, was chronically exposed to 8K-NBD then euthanized at 20 wk of age to determine if 8K-NBD affected histopathologic changes associated with aging (FIG. 10). Liver and skeletal muscle (SKM) were dissected, fixed, sectioned and stained. Tissues were compared to age-matched untreated Ercc1^−/Δ. The liver of Ercc1^−/Δ mice display large polyploid nuclei (FIG. 11A, 10×) characteristic of senescent hepatocytes (Gupta, 2000). […] This is consistent with previous reports that in mouse models of numerous inflammatory myopathies, persistent NF-κB activity is associated with necrotic and regenerative changes (Monici et al., 2003).

In data set [3] the test system is Ercc1^−/Δ mice. The experiment in a line: Third series: double blinded twin study, 8K-NBD versus negative control 8K-mNBD. Format: in vivo, mouse. On the procedure:
FIG. 12. Treatment schedule for third series of experiments; treatment with 8K-NBD or negative control 8k-mNBD.
In a third series of experiments, a different treatment regimen was used (FIG. 12) in which treatment with 8K-NBD or a negative control peptide, 8K-mNBD (having a mutated sequence, […] (SEQ ID NO:7)) was initiated earlier than the above regimens at approximately 5 weeks (8K-NBD or 8K-mNBD, 10 mg/kg) administered intraperitoneally three times per week). This was a double blinded twin study designed to eliminate genetic and environmental variables.
FIG. 13 presents a table showing the phenotypic changes associated with aging in mice treated with 8k-NBD or negative control 8k-mNBD. The overall aging score was improved by 30 percent in 8K-NBD versus 8K-mNBD-treated mice, indicating a significant delay in the onset of age-related symptoms corresponding to over a decade in human life.
FIG. 15A-D presents a comparison of levels of hepatocellular senescence, as measured by staining for p16 protein, in young and senescent wild-type mice as well as Ercc1^−/Δ mice treated with either 8K-NBD or negative control 8K-mNBD according to the regimen of FIG. 12 at the age of 18 weeks.

Another data set has as its system NF-κB activation. Conditions: (Wen 2006); cited from earlier work.
The next data set concerns mice. The conditions noted are these: cited from earlier work.
Setting [4] is: 8K-NBD 10 mg/kg i.p. chronically, versus sibling treated with vehicle only.
The mark [5] stands for this setting: 8K-NBD versus vehicle-treated mouse.

Consider `Cl.O=C1Nc2nc(-c3c(O)cccc3OCC3CC3)cc([C@@H]3CCCNC3)c2CO1` [Compound A], for which, in the data set with Ercc^−/Δ mouse, the “Ataxia (onset)” value was 19.3, the “Dystonia (onset)” value is 13.7, the “Kyphosis (onset)” value is 14.3 and the “Trembling (onset)” value turned out to be 12.7. For the same compound, the “Wasting (onset)” value in the data set with Ercc^−/Δ mouse is on record as 19.7.

“KKKKKKKK-GG-TALDWSWLQTE (SEQ ID NO:2) (KKKKKKKKGGTALDWSWLQTE) [8K-NBD]”: in the data set with Ercc1^−/Δ mice [1] (setting [4]), the “Delay of onset of ataxia” value was found to be 3 wks and the “Delay of onset of priapism” value turned out to be 1.5 wks. Moreover, the Body weight maintenance result in the data set with Ercc1^−/Δ mice [1] (8K-NBD versus untreated and vehicle-treated mice) is “maintained weight longer”. Also, in the data set with Ercc1^−/Δ mice [1] (setting [5]), the “Ambulation and general appearance” value is reported as “improved”; the “Severity of dystonia, trembling and kyphosis” value is reported as “significantly reduced”. In addition, in the data set on Ercc1^−/Δ mice [1] (8K-NBD versus vehicle-treated sibling), the “Delay in onset of symptoms (cachexia, loss of muscle mass and vision)” value is listed as not below 3 wk. Besides, the “Motor strength and coordination (balance beam, suspension from a wire)” value in the data set with Ercc1^−/Δ mice [1] (tested weekly, versus untreated mice (n=7)) is given as “tended to perform better”. Also, the “Onset of cachexia, loss of muscle mass and vision” value in the data set on Ercc1^−/Δ mice [1] (within the 19 wk period of the study, vehicle mouse showed them by 16 wks of age) is “did not arise”. Also, the “Skeletal muscle (SKM) pathology” value with Ercc1^−/Δ mice [2] (at 20 wk of age, untreated Ercc1^−/Δ SKM showed necrosis) is “devoid of pathologic changes”. Besides, in the data set on Ercc1^−/Δ mice [2] (liver at 20 wk of age, versus age-matched untreated Ercc1^−/Δ), the “Hepatocyte cytoplasm to nuclear ratio” value is reported as “much higher”. Moreover, in the data set with Ercc1^−/Δ mice [2] (liver at 20 wk of age, suggestive of liver regeneration), the Hepatic architecture entry is “effaced”. The “Improvement of overall aging score” value in the data set on Ercc1^−/Δ mice [3] (8K-NBD versus 8K-mNBD, 10 mg/kg i.p. three times per week from approximately 5 weeks) is recorded as 30%. Besides, the “Hepatocellular senescence, p16 protein staining pattern” value with Ercc1^−/Δ mice [3] (at the age of 18 weeks) is “more closely resembles that of a young, healthy mouse”. Also, the “Neurodegeneration, GFAP staining pattern” value with Ercc1^−/Δ mice [3] (at the age of 18 weeks, relative to 8K-mNBD-treated animal) is given as “more closely resembles that of the young wild-type mouse”.

`COc1c(Cl)cc2c([nH]c3cnccc32)c1NC(=O)c1cccnc1C` [ML120B, (N-6-chloro-7-methoxy-9H-β-carbolin-8-yl)-2-methylnicotinamide]: the IC50 (usually the concentration needed to halve the response being measured) in the data set with NF-κB activation is 60 nM.

On to TALDWSWLQTE; SEQ ID NO:1 [NBD peptide], for which, in the data set on mice, the “Toxicity on systemic administration” value is “not toxic”.

For the compound “KKKKKKKKGGTALDASALQTE (SEQ ID NO:7) [8K-mNBD, reference compound]”, the “Degree of osteoporotic changes (micro-CT of vertebra)” value in the data set with Ercc1^−/Δ mice [3] (at 17 weeks of age, compared with 8K-NBD-treated sibling and wild-type littermate) was “appears greatest”. The “Hepatocellular senescence, p16 protein staining pattern” value in the data set with Ercc1^−/Δ mice [3] (at the age of 18 weeks) is reported as “more closely resembles the pattern in senescent wild-type hepatocytes”.
